Test results from publication PMC4152272 (PLoS ONE, 2014).

Assays:
N188 (Novozyme 188 BGL) [1] = test system: T1, N188 (Novozyme 188 BGL); assay: glucose release, glucose assay reagent, […] nm; format: biochemical; conditions: 50 mM acetate pH 5.0
T1 construct: gene bglA; commercial preparation Novozyme 188 (Novozymes), partially purified; N-glycosylated

N188 (Novozyme 188 BGL) [2] = test system: T1, N188 (Novozyme 188 BGL); assay: p-nitrophenol release, […] nm, nonlinear least squares; format: biochemical; conditions: 50 mM acetate pH 5.0, 50°C, 1 min

| Km (N188 (Novozyme 188 BGL) [1]) | Km (N188 (Novozyme 188 BGL) [2]) | Structure (SMILES) |
| --- | --- | --- |
| 2530 ± 506 µM |  | OC[C@H]1O[C@@H](O[C@H]2[C@H](O)[C@@H](O)C(O)O[C@@H]2CO)[C@H](O)[C@@H](O)[C@@H]1O (some centres unmarked) [cellobiose] |
|  | 1250 ± 164 µM | O=[N+]([O-])c1ccc(O[C@@H]2O[C@H](CO)[C@@H](O)[C@H](O)[C@H]2O)cc1 [pNPG, p-nitrophenyl β-D-glucopyranoside] |
